In the supplement of paper PMC11208160:

Test: recombinant UMI read abundance after kanamycin selection (control-corrected) (log10(CPM+1)); higher = more efficient recombination; extreme values may be limits of the assay; sequences stand for … in AGTGCAGAGAAAATCGGCCAGTTTTCTCTGCCTGCAGTCCGCATGCCGTGGGACCCCTTGGGTTCTAACCTGTTGCCTAGATTTATGCAGCGGACTGCCTTTCTCCCAAAGTGATAAACCGG…AGGTTGGTTTCACT; site = the 11-nt donor
Procedure, shortened: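 Sequenced counts of recombinant UMIs were turned into CPM, averaged across replicates and scaled with control-derived factors. The reported figure is log10(CPM+1). Those UMIs, each 12 nt long, tagged donor and donor-binding-loop pairs on a plasmid with a promoterless kanamycin gene, screened as a pool in Escherichia coli with IPTG (0.07 mM) plus kanamycin or without selection.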
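Note: IS621 bridge recombinase in Escherichia coli cells against a fixed T5 target plasmid.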

| Sequence | recombinant UMI read abundance (log10) |
| --- | --- |
| GTTGTTGCATGGACCGGTTTTCCCGGTAATCCGTATTTGGT (site GTTGTTGCTAC) | 1.83 |
| GTTGTTGCATGGACCGGTTTTCCCGGTAATCCGTATTTGGT (site GTTGTTTCTAC) | 0 |
| GTTTAAGCATGGACCGGTTTTCCCGGTAATCCGTATTTGAC (site GTTTAAGCTGT) | 2.24 |
| GTTTAGGCATGGACCGGTTTTCCCGGTAATCCGTATTTGCA (site GTTTAGGCTTG) | 2.03 |
| GTTTAGTCATGGACCGGTTTTCCCGGTAATCCGTATTTGAT (site GTTTAGTCTAT) | 1.59 |
| GTTTCGACATGGACCGGTTTTCCCGGTAATCCGTATTTGTC (site GTTTCGACTGA) | 0.157 |
| GTTTGAGCATGGACCGGTTTTCCCGGTAATCCGTATTTGCA (site GTTAGAGCTTG) | 1.32 |
| GTTTGAGCATGGACCGGTTTTCCCGGTAATCCGTATTTGCA (site GTTCGAGCTTG) | 1.89 |
| GTTTGAGCATGGACCGGTTTTCCCGGTAATCCGTATTTGCA (site GTTGGAGCTTG) | 1.55 |
| GTTTGAGCATGGACCGGTTTTCCCGGTAATCCGTATTTGCA (site GTTTGAGCTTG) | 2.07 |
| GTTTGCACATGGACCGGTTTTCCCGGTAATCCGTATTTGTA (site GTATGCACTTA) | 0.00807 |
| GTTTGCACATGGACCGGTTTTCCCGGTAATCCGTATTTGTA (site GTCTGCACTTA) | 0.253 |
| GTTTGCACATGGACCGGTTTTCCCGGTAATCCGTATTTGTA (site GTGTGCACTTA) | 0.0346 |
| GTTTGCACATGGACCGGTTTTCCCGGTAATCCGTATTTGTA (site GTTTGCACTTA) | 0.721 |
| GTTTGGACATGGACCGGTTTTCCCGGTAATCCGTATTTGAC (site GATTGGACTGT) | 0 |
| GTTTGGACATGGACCGGTTTTCCCGGTAATCCGTATTTGAC (site GCTTGGACTGT) | 1 |
| GTTTGGACATGGACCGGTTTTCCCGGTAATCCGTATTTGAC (site GGTTGGACTGT) | 0 |
| GTTTGGACATGGACCGGTTTTCCCGGTAATCCGTATTTGAC (site GTTTGGACTGT) | 1.91 |
| TAAAGCCCATGGACCGGTTTTCCCGGTAATCCGTATTTGTA (site TAAAGACCTTA) | 0.00168 |
| TAAAGCCCATGGACCGGTTTTCCCGGTAATCCGTATTTGTA (site TAAAGCCCTTA) | 1.58 |
| TAAAGCCCATGGACCGGTTTTCCCGGTAATCCGTATTTGTA (site TAAAGGCCTTA) | 0.00691 |
| TAAAGCCCATGGACCGGTTTTCCCGGTAATCCGTATTTGTA (site TAAAGTCCTTA) | 0.0272 |
| TAAAGGGCATGGACCGGTTTTCCCGGTAATCCGTATTTGTG (site TAAAGGGCTCA) | 1.23 |

| Sequence | recombinant UMI read abundance (log10) |
| --- | --- |
| TAAAGTACATGGACCGGTTTTCCCGGTAATCCGTATTTGTA (site TAAAGTACTTA) | 1.41 |
| TAAAGTACATGGACCGGTTTTCCCGGTAATCCGTATTTGTA (site TAAAGTCCTTA) | 0.00305 |
| TAAAGTACATGGACCGGTTTTCCCGGTAATCCGTATTTGTA (site TAAAGTGCTTA) | 0.204 |
| TAAAGTACATGGACCGGTTTTCCCGGTAATCCGTATTTGTA (site TAAAGTTCTTA) | 0 |
| TAAAGTCCATGGACCGGTTTTCCCGGTAATCCGTATTTGAA (site TAAAGTCCTTA) | 0.00424 |
| TAAAGTCCATGGACCGGTTTTCCCGGTAATCCGTATTTGAA (site TAAAGTCCTTC) | 0.144 |
| TAAAGTCCATGGACCGGTTTTCCCGGTAATCCGTATTTGAA (site TAAAGTCCTTG) | 0 |
| TAAAGTCCATGGACCGGTTTTCCCGGTAATCCGTATTTGAA (site TAAAGTCCTTT) | 0.775 |
| TAACCCACATGGACCGGTTTTCCCGGTAATCCGTATTTGTG (site TAACCCACTCA) | 0.0264 |
| TAACCTTCATGGACCGGTTTTCCCGGTAATCCGTATTTGGT (site TAACCTTCTAC) | 0.00557 |
| TAACCTTCATGGACCGGTTTTCCCGGTAATCCGTATTTGGT (site TACCCTTCTAC) | 0.00501 |
| TAACCTTCATGGACCGGTTTTCCCGGTAATCCGTATTTGGT (site TAGCCTTCTAC) | 0.244 |
| TAACCTTCATGGACCGGTTTTCCCGGTAATCCGTATTTGGT (site TATCCTTCTAC) | 0 |
| TAACTAGCATGGACCGGTTTTCCCGGTAATCCGTATTTGCG (site TAACTAGCTCG) | 0 |
| TAACTCCCATGGACCGGTTTTCCCGGTAATCCGTATTTGGC (site TAACTCCCTGC) | 0.847 |
| TAACTTCCATGGACCGGTTTTCCCGGTAATCCGTATTTGCA (site TAACTTCCTTG) | 0.949 |
| TAAGAAACATGGACCGGTTTTCCCGGTAATCCGTATTTGCT (site TAAGAAACTAG) | 2.12 |
| TAAGACCCATGGACCGGTTTTCCCGGTAATCCGTATTTGTT (site TAAGACCCTAA) | 0.806 |
| TAAGCAGCATGGACCGGTTTTCCCGGTAATCCGTATTTGCT (site AAAGCAGCTAG) | 0.00963 |
| TAAGCAGCATGGACCGGTTTTCCCGGTAATCCGTATTTGCT (site CAAGCAGCTAG) | 0.371 |
| TAAGCAGCATGGACCGGTTTTCCCGGTAATCCGTATTTGCT (site GAAGCAGCTAG) | 0.00441 |
| TAAGCAGCATGGACCGGTTTTCCCGGTAATCCGTATTTGCT (site TAAGCAGCTAG) | 2.32 |
| TAAGGTCCATGGACCGGTTTTCCCGGTAATCCGTATTTGTA (site TAAAGTCCTTA) | 0.294 |

| Sequence | recombinant UMI read abundance (log10) |
| --- | --- |
| TAAGGTCCATGGACCGGTTTTCCCGGTAATCCGTATTTGTA (site TAACGTCCTTA) | 0.0087 |
| TAAGGTCCATGGACCGGTTTTCCCGGTAATCCGTATTTGTA (site TAAGGTCCTTA) | 2.08 |
| TAAGGTCCATGGACCGGTTTTCCCGGTAATCCGTATTTGTA (site TAATGTCCTTA) | 0.00238 |
| TAAGGTGCATGGACCGGTTTTCCCGGTAATCCGTATTTGTA (site TAAGGTGCTTA) | 2.58 |
| TAAGTCACATGGACCGGTTTTCCCGGTAATCCGTATTTGGG (site AAAGTCACTCC) | 0.0244 |
| TAAGTCACATGGACCGGTTTTCCCGGTAATCCGTATTTGGG (site CAAGTCACTCC) | 0.0119 |
| TAAGTCACATGGACCGGTTTTCCCGGTAATCCGTATTTGGG (site GAAGTCACTCC) | 0.00751 |
| TAAGTCACATGGACCGGTTTTCCCGGTAATCCGTATTTGGG (site TAAGTCACTCC) | 0.00997 |
| TAAGTGCCATGGACCGGTTTTCCCGGTAATCCGTATTTGAC (site TAAGTGCCTGT) | 0.999 |
| TAATATCCATGGACCGGTTTTCCCGGTAATCCGTATTTGTC (site TAATATCCTGA) | 0.252 |
| TAATGAGCATGGACCGGTTTTCCCGGTAATCCGTATTTGGC (site TAATGAGCTAC) | 0.253 |
| TAATGAGCATGGACCGGTTTTCCCGGTAATCCGTATTTGGC (site TAATGAGCTCC) | 0.0259 |
| TAATGAGCATGGACCGGTTTTCCCGGTAATCCGTATTTGGC (site TAATGAGCTGC) | 2.42 |
| TAATGAGCATGGACCGGTTTTCCCGGTAATCCGTATTTGGC (site TAATGAGCTTC) | 0.585 |
| TAATGGCCATGGACCGGTTTTCCCGGTAATCCGTATTTGAT (site TAATGGCCTAT) | 0.00507 |
| TACAAACCATGGACCGGTTTTCCCGGTAATCCGTATTTGGT (site AACAAACCTAC) | 0 |
| TACAAACCATGGACCGGTTTTCCCGGTAATCCGTATTTGGT (site CACAAACCTAC) | 0.0034 |
| TACAAACCATGGACCGGTTTTCCCGGTAATCCGTATTTGGT (site GACAAACCTAC) | 0 |
| TACAAACCATGGACCGGTTTTCCCGGTAATCCGTATTTGGT (site TACAAACCTAC) | 0.00495 |
| TACAATTCATGGACCGGTTTTCCCGGTAATCCGTATTTGCC (site TACAATTCTGG) | 0.00632 |
| TACAATTCATGGACCGGTTTTCCCGGTAATCCGTATTTGCC (site TCCAATTCTGG) | 0 |
| TACAATTCATGGACCGGTTTTCCCGGTAATCCGTATTTGCC (site TGCAATTCTGG) | 0.434 |
